Experimental data: US9422545B2 (priority 2013, dated 2016)

Experiments:
virulent C. burnetii = test system: virulent C. burnetii; parameters: species or system Coxiella burnetii
1E4 = assay type: binding, mouse

Substance | number of dead bacteria (virulent C. burnetii) | inhibition index (A490 without PI-A490 with PI/A490 without PI) (1E4)
EDTA | significantly higher numbers of dead bacteria | 
SPPWHKHELHRK [m1E44] |  | highest inhibition index
